Assay results: US20110146678A1, “PROCESS FOR IMPROVING CRYSTALLINITY” (priority 2008, published 2011)

Assays:
Assay type in all cases: physicochemical
[1] = Aerosolisation efficiency of combination DPI formulations FP/micronized SX 500/50, NGI via Rotahaler and Cyclohaler, incl. 1 month storage; conditions: for % FPF under stressed storage conditions: 1 month at 25° C./75% RH; for FPF of FP compared with micronized sample: T=0, Cyclohaler; for FPF of FP compared with micronized sample / FPF of FP compared with other samples: 500/50 blend with micronized SX; for FPF of FP compared with other samples: T=0, Rotahaler
Description: The aerosolisation efficiency of samples 2, 3 and 4 of fluticasone propionate (FP) produced as described in Example 2 was assessed in combination dry powder inhaler (DPI) formulations containing micronized salmeterol xinafoate (SX) using a Rotahaler® unit dose DPI device (GSK, Ware, UK) and Cyclohaler® unit dose DPI device (TEVA Pharmaceuticals, Netherlands).
The aerosolization efficiency was evaluated in combination DPI formulations also containing micronized SX. Each combination formulation contained 0.16000 g FP (sample 2, 3 or 4), 0.02320 g SX and 3.8168 g lactose (ML001, DMV-Fonterra, Vehgel, Netherlands) and was prepared by geometric mixing. Following this, each blend was subsequently prepared using a Turbula T2F (Willy A Bachofen A G, Basel, Switzerland) at 46 rpm for 45 minutes. The blend strength of each combination formulation equated to 500 μg FP and 50 μg Salmeterol base. This matches the dose strength of Advair 500/50. A sample of Advair 500/50 was used as the micronized example. The aerolisation efficiency of four different formulations containing FP samples 2, 3, 4 or micronized FP was measured.
Following content uniformity testing, 12.5±0.5 mg of each blend was loaded into size 3 hydroxypropylmethyl cellulose capsules (HPMC, Shionogi Qualicaps S A, Basingstoke, UK). The capsules were stored at 44% RH for 24 h prior to in vitro performance testing.
(§1) Testing was performed using a Next Generation Impactor (NGI) with pre-separator, which was connected to a vacuum pump (GE Motors). Prior to testing, the pre-separator was filled with 15 ml of mobile phase and the cups of the NGI cups were coated with 1% v/v silicone oil in hexane to eliminate particle bounce.
For each experiment, two individual capsules of the same formulation were discharged into the NGI at 60 Lpm for 4 s via a Rotahaler (GSK, Ware, UK) and 90 Lpm for 2.8 s via a Cyclohaler (TEVA Pharmaceuticals, Netherlands) to ensure both devices were operated such that 4 kPa pressure drop was generated.
Additionally, blisters from a commercially available Advair 500/50 Diskus (GSK, USA) were emptied and 12.5 mg of formulation was transferred into size 3 HPMC capsules and discharged into a NGI at 60 Lpm for 4 s via a Rotahaler and at 90 Lpm for 2.8 s via a Cyclohaler.
Following aerosolization, the NGI apparatus was dismantled and the inhaler, capsules and each part of the NGI was washed down into known volumes of HPLC mobile phase. The mass of drug deposited on each part of the NGI was determined by HPLC. This protocol was repeated three times for each blend, following which, the fine particle dose (FPD) and fine particle fraction of the loaded dose (FPFLD) were determined. The FPD represented the mass of drug that was collected on stages 3-8 of the NGI.

[2] = Aerosolisation efficiency of binary DPI formulations (0.4% w/w FP in lactose), NGI via Rotahaler; conditions: binary DPI, Rotahaler 60 Lpm
Description: The aerosolization efficiency of samples 2, 3 and 4 of engineered FP were evaluated using binary formulations containing 0.4% w/w FP.
Each binary formulation contained 0.016 g FP and 3.984 g lactose (ML001, DMV-Fonterra, Vehgel, Netherlands) and was prepared by geometric mixing. Following this, the blend was subsequently prepared using a Turbula T2F (Willy A Bachofen A G, Basel, Switzerland) at 46 rpm for 45 minutes.
Following content uniformity testing, 12.5±1 mg of each blend was loaded into size 3 hydroxypropylmethyl cellulose capsules (HPMC, Shionogi Qualicaps S A, Basingstoke, UK). The capsules were stored at 44% RH for 24 h prior to in vitro performance testing.
as §1
For each experiment, four individual capsules of the same formulation were discharged into the NGI at 60 Lpm for 4 s via a Rotahaler (GSK, Ware, UK) DPI device. Additionally, blisters from a Flixotide Diskus (GSK, Ware, UK) were emptied and loaded into size 3 HPMS capsules and discharged into a NGI at 60 Lpm1 for 4 s via a Rotahaler. Following aerosolization, the NGI apparatus was dismantled and the inhaler, capsules and each part of the NGI was washed down into known volumes of HPLC mobile phase.
The mass of drug deposited on each part of the NGI was determined by HPLC. This protocol was repeated three times for each blend, following which, the mass median aerodynamic diameter (MMAD), geometric standard deviation (GSD), fine particle dose (FPD) and fine particle fraction of the emitted dose (FPFED) were determined. The FPD represented the mass of drug that was collected on stages 3-8 of the NGI.

[3] = Particle size by Sympatec HELOS laser diffraction / optical microscopy; conditions: for D(10) / D(50) / D(90): Sympatec HELOS laser diffraction
Source text: The particle size can be measured by laser diffraction techniques: Light from a laser is shone into a cloud of particles, which are suspended in a transparent gas such as air. The particles scatter the light; smaller particles scattering the light at larger angles than bigger particles. The scattered light can be measured by a series of photodetectors placed at different angles. This is known as the diffraction pattern for the sample. The diffraction pattern can be used to measure the size of the particles using well documented light scattering theory. The particles are assumed to be spherical but few particles are actually spherical. The particle diameters are calculated from the measured volume of the particle, but assume a sphere of equivalent volume.
Budesonide (5 g) was dissolved in 100 mL of dichloromethane. The samples of budesonide powder collected in the ultrasonic chamber were produced using a Büchi-290 laboratory-scale spray dryer […], Büchi, Switzerland). The solution was atomized using nitrogen at 7 bar flowing at approximately at 10 Lpm (Litre/minute). The aspirator was set at 100% and flow rate of solution was set to […]. The gas temperature was set to 120° C. Budesonide particles were collected the ultrasonic chamber connected to the end of high performance cyclone separator. In order to apply ultrasound to the spray dried particles, the collection ultrasonic chamber was filled with heptane thermoregulated at 25° C. and was fitted with an ultrasonic probe resonating at 20 kHz. Ultrasound at 20 W power was applied between 30 minutes and 1 hour. The resulting particle slurry was spray dried and particles characterized by optical microscopy and DSC (Differential Scanning calorimetry). The size of the particles were typically in the range of 1-7 μm.
The D(10), D(50), D(90) for two representative samples were 1.21, 3.03, 4.63 μm and 1.05, 2.99, 3.76 μm respectively as determined by Sympatec HELOS laser diffraction. […]

[4] = Specific surface area by five-point BET nitrogen adsorption
Description: The surface roughness and surface area of micronized Fluticasone Propionate (FP), sample 3 of FP prepared by the current invention and sample 4 of FP, as described in Example 2, were determined using atomic force microscopy (AFM) and BET surface area analysis, respectively. The roughness of imaged areas was quantified using the mean (Ra) and root mean square (Rq) of the variations in the height of the imaged surface. Furthermore, the surface area of samples was determined by a five-point BET nitrogen adsorption analysis. The specific surface areas of the FP samples were measured using a Gemini 2360 surface area analyser (Micromeritics Instrument Corporation, Norcross, USA). A five-point BET nitrogen adsorption analysis was carried out after degassing the samples for 24 hours in a FlowPrep 060 degasser (Micromeritics Instrument Corporation, Norcross, USA).

% FPF under stressed storage conditions [1] | FPF of FP compared with micronized sample [1] | D(10) [3] | D(50) [3] | D(90) [3] | size of the particles, typical range ([3]; after ultrasound treatment and spray drying of slurry) | Surface Area [4] | Compound | FPF of FP compared with other samples [1] | percentage fine particle fraction (% FPF) compared with micronized FP ([2]; listed as Samples 2) | percentage fine particle fraction (% FPF) compared with micronized FP [2]
not significantly affected | greater than the micronized sample | 1.35 μm | 3.25 μm | 5.63 μm | 1-6 μm | – | CCC(=O)O[C@]1(C(=O)SCF)[C@H](C)C[C@H]2[C@@H]3C[C@H](F)C4=CC(=O)C=C[C@]4(C)[C@@]3(F)[C@@H](O)C[C@@]21C [Sample 2, Fluticasone propionate] | greater than sample 4 and the micronized sample | significantly greater than that of micronized FP | –
not significantly affected | greater than the micronized sample | 0.99 μm | 2.55 μm | 4.97 μm | – | 10.79 m^2/g | CCC(=O)O[C@]1(C(=O)SCF)[C@H](C)C[C@H]2[C@@H]3C[C@H](F)C4=CC(=O)C=C[C@]4(C)[C@@]3(F)[C@@H](O)C[C@@]21C [Sample 3, Fluticasone propionate] | greater than sample 4 and the micronized sample | – | significantly greater than that of micronized FP
not significantly affected | greater than the micronized sample | 1.14 μm | 2.67 μm | 5.11 μm | – | 7.49 m^2/g | CCC(=O)O[C@]1(C(=O)SCF)[C@H](C)C[C@H]2[C@@H]3C[C@H](F)C4=CC(=O)C=C[C@]4(C)[C@@]3(F)[C@@H](O)C[C@@]21C [Sample 4, fluticasone propionate, reference compound] | poor performance | – | significantly lower % FPF than micronized FP
not significantly affected | – | – | – | – | – | 6.55 m^2/g | CCC(=O)O[C@]1(C(=O)SCF)[C@H](C)C[C@H]2[C@@H]3C[C@H](F)C4=CC(=O)C=C[C@]4(C)[C@@]3(F)[C@@H](O)C[C@@]21C [micronized FP, Fluticasone Propionate] | – | – | –
